Results published in BindingDB's records for doi:10.7270/Q2319T8T (The Scripps Research Institute Molecular Screening Center, 2007).
Structures can show the parent of a compound that is named as a salt.

Target: Steroidogenic factor 1 (Homo sapiens, UniProt Q13285)
Assay: blockers of SF-1 LBD reporter transcription – cell-based, CHO-K1, Gal4-SF-1 LBD, luciferase luminescence, dose response (AID 600)
[1] = inactive by the depositor's call

Steroidogenic factor 1, sequence (Q13285 whole entry, the tested form may be a part): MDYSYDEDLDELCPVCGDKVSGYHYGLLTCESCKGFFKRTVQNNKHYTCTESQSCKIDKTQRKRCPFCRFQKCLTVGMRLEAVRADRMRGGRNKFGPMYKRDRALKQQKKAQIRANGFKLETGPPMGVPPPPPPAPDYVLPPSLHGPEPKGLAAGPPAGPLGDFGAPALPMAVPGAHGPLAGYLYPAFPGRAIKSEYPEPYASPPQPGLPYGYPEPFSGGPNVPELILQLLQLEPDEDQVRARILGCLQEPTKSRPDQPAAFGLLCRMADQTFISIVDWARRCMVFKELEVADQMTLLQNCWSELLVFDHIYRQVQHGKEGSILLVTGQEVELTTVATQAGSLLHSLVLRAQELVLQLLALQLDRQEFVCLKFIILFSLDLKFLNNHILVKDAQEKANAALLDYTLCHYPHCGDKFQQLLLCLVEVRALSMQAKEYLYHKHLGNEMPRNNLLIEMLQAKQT

In the case of `COc1cc(CSc2nnnn2-c2ccc(C)cc2)cc(OC)c1OC` [1-(4-methylphenyl)-5-[(3,4,5-trimethoxybenzyl)thio]-1H-tetrazole], the IC50 [1] is reported as 16.9 µM.
In the case of `CC(C)OCCCNc1ncnc2c1[nH]c1ccc(F)cc12`, the IC50 [1] is reported as 20.7 µM.
With `Cc1cc(C=Nn2cnnc2)c(C)n1-c1ccc(OCc2ccc(F)cc2)cc1` [MLS000112167] the IC50 was greater than 3.67 µM.
`CC1CCN(c2nc3ccc(C(=O)O)cc3s2)CC1` [2-(4-methyl-1-piperidinyl)-1,3-benzothiazole-6-carboxylic acid] showed an IC50 of 2.25 µM.
`Nc1nc(Cl)nc2c1ncn2[C@H]1C[C@H](O)[C@@H](CO)O1` [2-CHLORO-2'-DEOXYADENOSINE] gave an IC50 of 0.454 µM.
`COc1ccc(C(=O)Nn2c(SCC(=O)NCC3CCCO3)nc3ccccc3c2=O)cc1` (stereo not given) [4-methoxy-N-[4-oxidanylidene-2-[2-oxidanylidene-2-(oxolan-2-ylmethylamino)ethyl]sulfanyl-quinazolin-3-yl]benzamide] gave an IC50 of 4.29 µM.
For `O=C(O)c1cccc(COc2ccc(CO)cc2Cl)c1` [3-[(2-chloro-4-methylol-phenoxy)methyl]benzoic acid], the IC50 was 0.547 µM.
Compound `O=NC1c2cc(S(=O)(=O)N3CCCCC3)ccc2-c2ccc(S(=O)(=O)N3CCCCC3)cc21` [2,7-Bis-(piperidine-1-sulfonyl)-fluoren-9-one oxime] has an IC50 of 1.51 µM.
For `c1ccc(CN2CCN(c3ncnc4c3[nH]c3ccccc34)CC2)cc1` [MLS000078384], the IC50 [1] was 15.6 µM.
For `Cc1ccc2[nH]c3c(N4CCCCCC4)ncnc3c2c1` [4-(azepan-1-yl)-8-methyl-5H-pyrimido[5,4-b]indole], the IC50 [1] was 10.9 µM.
In the case of `O=C(CC=Nc1cccc(F)c1)c1ccc2c(c1)OCO2`, the IC50 is reported as 4.65 µM.
With `Cc1cccc(NC(=O)CSc2nnc(-c3cc(C)n(-c4ccccc4)c3C)o2)c1C` [MLS000036049] the IC50 was greater than 1.22 µM.
`Cc1cccc(-n2ncc3c(N(C)C4CCCCC4)ncnc32)c1` [MLS000100814] gave an IC50 greater than 3.67 µM.
`N#CC1C(=N)C(C#N)(C#N)[C@H](c2ccncc2)[C@H]2CN(C(=O)OCc3ccccc3)CC=C12` (stereo partly drawn) [(8S,8aR)-6-amino-5,7,7-tricyano-8-(4-pyridyl)-1,3,8,8a-tetrahydroisoquinoline-2-carboxylic acid benzyl ester] was tested, and the IC50 was 14.7 µM.
For `CCc1ccc2oc(-c3cc(N=Cc4cccc(OC)c4O)ccc3O)nc2c1` [(6E)-6-[[[(3E)-3-(5-ethyl-3H-1,3-benzoxazol-2-ylidene)-4-keto-cyclohexa-1,5-dien-1-yl]amino]methylene]-2-methoxy-cyclohexa-2,4-dien-1-one], the IC50 was 5.66 µM.
For `COc1ccc(OC)c(Nc2nc(-c3ccc(O)c(O)c3)cs2)c1` [4-[2-(2,5-Dimethoxy-phenylamino)-thiazol-4-yl]-benzene-1,2-diol], the IC50 was greater than 3.67 µM.
`CC1(C)COCN1S(=O)(=O)c1ccc(C(=O)Nc2nnc(-c3ccc(Cl)s3)o2)cc1` [MLS000086346] showed an IC50 of 7.61 µM.
Compound `CC1CCCN(c2ncnc3c2cnn3-c2ccccc2)C1` (stereo not given) [4-(3-methyl-1-piperidinyl)-1-phenylpyrazolo[3,4-d]pyrimidine] has an IC50 of 6.8 µM.
`Cn1cc(C=Nn2cnc3scc(-c4ccc(Cl)cc4)c3c2=O)c2ccccc21` [5-(4-chlorophenyl)-3-[(1-methyl-3-indolyl)methylideneamino]-4-thieno[2,3-d]pyrimidinone] was tested, and the IC50 was 9.07 µM.
`CCN1C(=O)/C(=C2/Sc3ccc(OC)cc3N2C)S/C1=N\c1cccc(O)c1` [(5Z)-3-ethyl-2-(3-hydroxyphenyl)imino-5-(5-methoxy-3-methyl-1,3-benzothiazol-2-ylidene)-1,3-thiazolidin-4-one] was tested, and the IC50 was 7.66 µM.
`Cc1cccc(NC(=O)Nc2ccc(C#N)cc2)n1` [1-(4-cyanophenyl)-3-(6-methyl-2-pyridinyl)urea] was tested, and the IC50 was greater than 1.22 µM.
`Cc1ccc(-c2cnc(NC(=O)CCC(=O)N3CCCCC3)n2C)cc1` [4-keto-N-[1-methyl-5-(p-tolyl)imidazol-2-yl]-4-piperidino-butyramide] gave an IC50 greater than 99 µM.
For `Cc1ccc(CNc2nc3ccccc3s2)s1` [1,3-benzothiazol-2-yl-[(5-methyl-2-thienyl)methyl]amine], the IC50 was greater than 11 µM.
With `c1csc(CCNc2ncnc3sc4c(c23)CCC4)c1` [7,8-dihydro-6H-cyclopenta[4,5]thieno[1,2-c]pyrimidin-1-yl-[2-(2-thienyl)ethyl]amine] the IC50 [1] was 11.1 µM.
With `CC(C)c1ccc2oc(-c3cc(N)ccc3O)nc2c1` [(6E)-4-amino-6-(5-isopropyl-3H-1,3-benzoxazol-2-ylidene)cyclohexa-2,4-dien-1-one] the IC50 was 10.6 µM.
`Cc1cc(C)n(-c2ccc3cccc(NS(C)(=O)=O)c3n2)n1` [MLS000062301] gave an IC50 of 3.42 µM.
`CCOc1cc(C(=O)N2CCc3cc(OC)c(OC)cc3C2)ccc1OC(F)F` [MLS000083614] showed an IC50 [1] of 12.9 µM.
In the case of `Cc1occc1C(=O)N1CCN(c2ccc(Cl)c(Cl)c2)CC1` [1-(3,4-dichlorophenyl)-4-(2-methyl-3-furoyl)piperazine], the IC50 [1] is reported as 29.7 µM.
Compound `Oc1ccc(N2CCN(c3ncnc4sc5c(c34)CCC5)CC2)cc1` [4-[4-(7,8-dihydro-6H-cyclopenta[4,5]thieno[1,2-c]pyrimidin-1-yl)-1-piperazinyl]phenol] has an IC50 [1] of 13.7 µM.
Work on `Clc1cccc(-c2nc(-c3ccccn3)no2)c1` [2-[5-(3-Chloro-phenyl)-[1,2,4]oxadiazol-3-yl]-pyridine] yielded an IC50 greater than 3.67 µM.
With `COCCNC(=O)CSCc1nc(-c2ccc(SC)cc2)oc1C` [MLS000089367] the IC50 was 0.595 µM.
In the case of `O=C(Nc1nc(-c2ccccn2)cs1)c1ccc(Cl)s1` [5-chloranyl-N-(4-pyridin-2-yl-1,3-thiazol-2-yl)thiophene-2-carboxamide], the IC50 is reported as greater than 3.67 µM.
`c1ccc(-c2noc(-c3ccc4ccccc4c3)n2)cc1` [5-(2-naphthalenyl)-3-phenyl-1,2,4-oxadiazole] showed an IC50 of 8.89 µM.
Compound `Fc1ccc2[nH]c3c(N4CCN(c5ccccc5)CC4)ncnc3c2c1` has an IC50 of 1.06 µM.
Work on `O=C(NC1CC1)c1ccc(-c2nc3ccccc3s2)s1` [5-(1,3-benzothiazol-2-yl)-N-cyclopropyl-2-thiophenecarboxamide] yielded an IC50 of 2.81 µM.
`COc1ccccc1CC(=O)N1CCN(c2cccc(C(F)(F)F)c2)CC1` [2-(2-methoxyphenyl)-1-[4-[3-(trifluoromethyl)phenyl]-1-piperazinyl]ethanone] gave an IC50 [1] of 19.7 µM.
`CCOC(=O)C(C)Oc1cccc2c(=O)n(CC(=O)Nc3ccc4c(c3)OCCO4)ccc12` (stereo not given) showed an IC50 of 0.837 µM.
`CN(C)c1ccc(-c2nc3ccccc3n2C)cc1` [MLS000089904] gave an IC50 greater than 3.67 µM.
`COc1ccc(CCNc2nnc(Sc3nnnn3-c3ccccc3)s2)cc1OC` [MLS000056567] showed an IC50 of 5.15 µM.
`CN(C)c1ccc(NC(=S)c2ccccn2)cc1` [MLS000111989] was tested, and the IC50 was 2.41 µM.
Compound `COc1cc([C@@H]2c3cc4c(cc3[C@H](O)[C@H]3COC(=O)[C@H]23)OCO4)cc(OC)c1OC` [podophyllotoxin] has an IC50 of 0.0454 µM.
Work on `CS(=O)(=O)c1nc(-c2cccs2)cc(C(F)(F)F)n1` [MLS000044645] yielded an IC50 of 5.46 µM.
In the case of `O=S(=O)(NCc1ccncc1)c1ccc(Br)s1` [5-bromanyl-N-(pyridin-4-ylmethyl)thiophene-2-sulfonamide], the IC50 is reported as 0.108 µM.
In the case of `COc1cc2nc(CN3CC=C(c4ccccc4)CC3)nc(O)c2cc1OC` [MLS000053305], the IC50 is reported as 1.3 µM.
With `O=c1c2ccccc2cnn1-c1nc2ccccc2s1` [2-(1,3-benzothiazol-2-yl)-1-phthalazinone] the IC50 was 2.12 µM.
Compound `Cn1c(-c2ccco2)nc2cc3ccccc3cc21` [2-(2-furanyl)-3-methylbenzo[f]benzimidazole] has an IC50 [1] of 10.4 µM.
Compound `O=C(Nc1nc2cc3c(cc2s1)OCO3)C1=COCCO1` [MLS000103798] has an IC50 of 3.7 µM.
`COc1ccc(-c2nc(CSCC(=O)NCc3ccco3)c(C)o2)cc1` [MLS000089353] gave an IC50 of 5.87 µM.
`O=C(NCCCN1CCOCC1)c1csc2c1CCCC2` [MLS000093382] showed an IC50 greater than 99 µM.
Compound `Cc1sc(NC(=O)c2ccco2)c(C(c2cccnc2)N2CCN(c3ccc(F)cc3)CC2)c1C` (stereo not given) [MLS000114428] has an IC50 greater than 11 µM.
With `COc1ccc(CC(=O)Nc2ccc(-c3nnc(-c4ccccc4)o3)cc2)cc1OC` [2-(3,4-dimethoxyphenyl)-N-[4-(5-phenyl-1,3,4-oxadiazol-2-yl)phenyl]acetamide] the IC50 was 2.44 µM.
Compound `COc1ccc(-c2noc(CCCC(=O)O)n2)cc1` [4-[3-(4-methoxyphenyl)-1,2,4-oxadiazol-5-yl]butanoic acid] has an IC50 of 0.625 µM.
`CC1CCc2nc(NC(=O)c3ccco3)sc2C1` (stereo not given) [MLS000063711] gave an IC50 greater than 11 µM.
In the case of `CCOc1ccc(Nc2cc(C)nc(-n3nc(C)cc3C)n2)cc1` [2-(3,5-dimethyl-1-pyrazolyl)-N-(4-ethoxyphenyl)-6-methyl-4-pyrimidinamine], the IC50 is reported as 7.83 µM.
`c1c2c(cc3sc(N4CCOCC4)nc13)OCCO2` [2-(4-morpholinyl)-6,7-dihydro-[1,4]dioxino[2,3-f][1,3]benzothiazole] showed an IC50 greater than 3.67 µM.
With `CN(C)CC(C(=O)c1ccccc1)c1ccccc1` (stereo not given) [3-(dimethylamino)-1,2-diphenyl-1-propanone;hydrochloride] the IC50 was greater than 3.67 µM.
`Cc1ccc(-c2cc3c(nn2)-c2ccccc2C3=O)cc1` [3-(4-methylphenyl)-5H-indeno[1,2-c]pyridazin-5-one] was tested, and the IC50 [1] was 13 µM.
In the case of `COc1cccc(CNC(=O)c2nnn(CC(=O)Nc3ccc(C)c(C)c3)c2N)c1` [5-amino-1-[2-(3,4-dimethylanilino)-2-keto-ethyl]-N-m-anisyl-triazole-4-carboxamide], the IC50 is reported as 8.72 µM.
Work on `COc1cccc2sc(Nc3nc(-c4ccccn4)cs3)nc12` [(4-methoxy-1,3-benzothiazol-2-yl)-[4-(2-pyridyl)thiazol-2-yl]amine] yielded an IC50 of 4.48 µM.
`CCN1C=CC(=C2C(=O)c3ccccc3C2=O)C=C1` [2-(1-ethyl-4-pyridinylidene)indene-1,3-dione] showed an IC50 of 0.954 µM.
Work on `CNC(=O)CCc1nc(-c2ccc(C(C)(C)C)cc2)no1` [3-[3-(4-tert-butylphenyl)-1,2,4-oxadiazol-5-yl]-N-methyl-propanamide] yielded an IC50 of 0.058 µM.
`c1ccc(-c2nc(N3CCCCCC3)c3ccccc3n2)nc1` [SMR000046752] gave an IC50 of 3.46 µM.
In the case of `CCOc1ccc(-c2cc(CCCC(=O)Nc3cc(OC)ccc3OC)no2)cc1` [MLS000045930], the IC50 [1] is reported as 12.7 µM.
In the case of `CCOC(=O)c1oc2ccc(S(=O)(=O)Nc3ccc4c(c3)n(C)c(=O)n4C)cc2c1C` [5-[(1,3-dimethyl-2-oxo-5-benzimidazolyl)sulfamoyl]-3-methyl-2-benzofurancarboxylic acid ethyl ester], the IC50 [1] is reported as 25.5 µM.
With `CCCCOc1ncnc2c1[nH]c1ccc(F)cc12` [4-butoxy-8-fluoranyl-5H-pyrimido[5,4-b]indole] the IC50 [1] was 11.4 µM.
